Experiment [1] concerns H3K27 methylation in G401 cell. The experiment can be described thus: ELISA (H3K27 methylation) assay in G401 cells. Type of experiment: cell-based, human. As to conditions: Homo sapiens, G-401, H3K27 methylation ELISA, read-out: (c) IC50 ELISA Qualified. The procedure, abridged:
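IC50 from dose-response fit of percent inhibition relative to DMSO, using H3K27me3/me2 ELISA signal (ECL) normalized to histone H3. Histones HCl-extracted after 48 h compound exposure of G401 cells at up to 20 μM, 8- or 12-point 3-fold series.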

The target in experiment [2] is wild type PRC2 (wtPRC2) complex (Homo sapiens, UniProt O75530). The experiment is described as follows: EED LC-MS assay (SAH production by PRC2). As to conditions: PRC2 LC-MS assay; read-out: (b) IC50 EED LC-MS Qualified. Type of experiment: biochemical. The gist of the method:
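LC-MS/MS readout of SAH (d4-SAH standard) after TFA quench gives PRC2 activity, normalized to controls and fitted to dose-response for IC50. Reaction: 12 nM EZH2/SUZ12/EED/Rbap48/AEBP complex, 1 μM SAM, 1.5 μM H3[21-44] peptide, 120 min rt, 20 min compound preincubation.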

The target in a further experiment is T1, EED (1-441)-His protein (Homo sapiens, UniProt O75530).
T1 construct: 30 nM EED (1-441)-His protein
The experiment can be described thus: EED-H3K27Me3 peptide competition binding assay by AlphaScreen. As to conditions: EED-H3K27Me3 peptide competition, AlphaScreen; read-out: (a) IC50 EED Alphascreen binding Qualified. The procedure, abridged: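 Serially diluted compound (12 points, 3-fold) incubated 20 min with 30 nM EED(1-441)-His and 15 nM biotin-H3K27Me3(19-33) peptide in 25 mM HEPES pH 8, 0.02% Tween-20, 0.5% BSA. Ni-chelate acceptor/streptavidin donor beads (10 μg/mL each) added, 1 h rt dark; 615 nm emission normalized to controls, dose-response fit for IC50.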

Broadly, the IC50 is the concentration needed to halve the response being measured.

Structures are written as SMILES.

T1 sequence (O75530 whole entry): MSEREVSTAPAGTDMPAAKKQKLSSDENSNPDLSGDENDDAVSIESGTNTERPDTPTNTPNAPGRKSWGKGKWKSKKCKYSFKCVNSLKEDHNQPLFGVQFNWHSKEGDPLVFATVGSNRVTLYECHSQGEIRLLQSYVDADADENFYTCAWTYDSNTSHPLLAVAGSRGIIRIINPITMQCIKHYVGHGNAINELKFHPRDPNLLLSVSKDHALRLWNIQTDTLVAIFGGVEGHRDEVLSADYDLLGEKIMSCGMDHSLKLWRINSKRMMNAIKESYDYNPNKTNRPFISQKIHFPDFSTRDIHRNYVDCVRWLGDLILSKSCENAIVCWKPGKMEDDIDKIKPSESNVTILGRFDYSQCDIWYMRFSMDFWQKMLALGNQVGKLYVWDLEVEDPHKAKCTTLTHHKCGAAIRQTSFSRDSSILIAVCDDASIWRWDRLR
wild type PRC2 (wtPRC2) complex, sequence (O75530 whole entry): as above
wild type PRC2 (wtPRC2) complex, sequence (Q15910 whole entry partner): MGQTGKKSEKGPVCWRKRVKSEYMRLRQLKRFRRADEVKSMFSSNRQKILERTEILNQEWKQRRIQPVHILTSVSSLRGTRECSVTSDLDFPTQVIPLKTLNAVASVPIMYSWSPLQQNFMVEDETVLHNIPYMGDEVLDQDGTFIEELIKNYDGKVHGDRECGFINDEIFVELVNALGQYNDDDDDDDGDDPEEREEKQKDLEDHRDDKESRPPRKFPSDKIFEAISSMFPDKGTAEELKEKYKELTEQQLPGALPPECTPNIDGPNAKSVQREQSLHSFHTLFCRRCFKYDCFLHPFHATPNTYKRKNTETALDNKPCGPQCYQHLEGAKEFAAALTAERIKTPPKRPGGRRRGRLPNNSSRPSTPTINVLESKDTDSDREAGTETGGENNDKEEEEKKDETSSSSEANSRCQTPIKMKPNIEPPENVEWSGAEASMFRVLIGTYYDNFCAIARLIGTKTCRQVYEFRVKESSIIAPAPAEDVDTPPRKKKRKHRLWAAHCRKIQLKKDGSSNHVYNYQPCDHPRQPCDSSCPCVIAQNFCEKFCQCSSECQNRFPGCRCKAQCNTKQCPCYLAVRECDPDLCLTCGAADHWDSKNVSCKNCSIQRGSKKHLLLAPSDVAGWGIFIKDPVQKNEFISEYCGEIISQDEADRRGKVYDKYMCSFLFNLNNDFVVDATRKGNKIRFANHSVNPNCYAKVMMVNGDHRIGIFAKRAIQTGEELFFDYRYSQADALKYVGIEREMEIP
wild type PRC2 (wtPRC2) complex, sequence (Q15022 whole entry partner): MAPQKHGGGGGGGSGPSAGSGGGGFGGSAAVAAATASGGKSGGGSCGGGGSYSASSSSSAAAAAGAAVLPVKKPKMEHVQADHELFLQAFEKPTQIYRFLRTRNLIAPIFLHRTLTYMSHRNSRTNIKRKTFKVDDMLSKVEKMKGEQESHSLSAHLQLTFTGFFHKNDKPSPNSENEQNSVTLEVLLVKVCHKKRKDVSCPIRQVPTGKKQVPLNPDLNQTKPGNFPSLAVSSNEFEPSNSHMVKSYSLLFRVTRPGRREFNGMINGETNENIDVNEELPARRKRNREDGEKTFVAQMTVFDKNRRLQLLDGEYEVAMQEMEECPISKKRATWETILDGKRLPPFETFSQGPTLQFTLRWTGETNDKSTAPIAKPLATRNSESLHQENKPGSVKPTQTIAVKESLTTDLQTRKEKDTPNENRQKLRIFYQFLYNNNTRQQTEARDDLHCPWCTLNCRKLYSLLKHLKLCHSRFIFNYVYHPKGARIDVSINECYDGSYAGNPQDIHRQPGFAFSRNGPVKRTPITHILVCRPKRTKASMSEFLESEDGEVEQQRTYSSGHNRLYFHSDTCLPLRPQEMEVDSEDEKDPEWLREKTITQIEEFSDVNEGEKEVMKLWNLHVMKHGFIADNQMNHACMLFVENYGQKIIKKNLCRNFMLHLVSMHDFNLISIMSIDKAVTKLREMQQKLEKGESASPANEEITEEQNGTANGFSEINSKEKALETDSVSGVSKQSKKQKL
wild type PRC2 (wtPRC2) complex, sequence (Q09028 whole entry partner): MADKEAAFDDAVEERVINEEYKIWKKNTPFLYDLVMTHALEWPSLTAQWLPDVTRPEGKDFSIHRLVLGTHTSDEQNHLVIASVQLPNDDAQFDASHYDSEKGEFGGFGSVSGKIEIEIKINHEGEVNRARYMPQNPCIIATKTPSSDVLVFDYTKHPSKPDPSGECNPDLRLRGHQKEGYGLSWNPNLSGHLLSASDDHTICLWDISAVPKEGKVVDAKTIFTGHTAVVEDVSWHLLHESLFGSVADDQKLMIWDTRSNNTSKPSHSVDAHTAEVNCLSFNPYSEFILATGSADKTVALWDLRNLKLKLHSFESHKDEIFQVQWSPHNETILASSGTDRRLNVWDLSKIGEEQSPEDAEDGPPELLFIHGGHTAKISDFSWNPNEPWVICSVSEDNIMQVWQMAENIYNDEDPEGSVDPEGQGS
wild type PRC2 (wtPRC2) complex, sequence (Q6ZN18 whole entry partner): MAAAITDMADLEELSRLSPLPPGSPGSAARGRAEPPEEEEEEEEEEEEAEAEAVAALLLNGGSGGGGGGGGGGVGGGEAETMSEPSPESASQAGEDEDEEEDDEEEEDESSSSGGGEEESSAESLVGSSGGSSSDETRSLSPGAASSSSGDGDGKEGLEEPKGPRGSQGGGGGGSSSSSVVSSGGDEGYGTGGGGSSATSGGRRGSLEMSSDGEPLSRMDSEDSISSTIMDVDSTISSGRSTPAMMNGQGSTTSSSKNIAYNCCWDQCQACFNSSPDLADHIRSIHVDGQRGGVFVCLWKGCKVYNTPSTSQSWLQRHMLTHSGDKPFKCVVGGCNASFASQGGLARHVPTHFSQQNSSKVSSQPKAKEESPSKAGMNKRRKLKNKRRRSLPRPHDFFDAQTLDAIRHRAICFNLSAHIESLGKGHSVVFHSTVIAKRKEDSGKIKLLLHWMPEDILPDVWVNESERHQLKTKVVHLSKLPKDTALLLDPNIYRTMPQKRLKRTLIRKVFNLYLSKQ

Regarding `COc1cccc(F)c1CNc1ccc(-c2cncc(C(=O)N(C)C)c2)c2nncn12` [Example 195, 5-(5-((2-fluoro-6-methoxybenzyl)amino)-[1,2,4]triazolo[4,3-a]pyridin-8-yl)-N,N-dimethylnicotinamide], the IC50 in experiment [1] is 8 nM; in experiment [2], 61.3 nM; on EED (1-441)-His protein, 17.6 nM.

`COc1cccc(F)c1CNc1ccc(-c2ccc(NC(C)=O)nc2)c2nncn12` [Example 196, N-(5-(5-((2-fluoro-6-methoxybenzyl)amino)-[1,2,4]triazolo[4,3-a]pyridin-8-yl)pyridin-2-yl)acetamide]: the IC50 in experiment [1] was 43.8 nM; in experiment [2], 164 nM; at EED (1-441)-His protein it was 25.3 nM.

With `COc1cccc(F)c1CNc1ccc(-c2cncc(OCCCS(C)(=O)=O)c2)c2nncn12` [Example 198, N-(2-fluoro-6-methoxybenzyl)-8-(5-(3-(methylsulfonyl)propoxy)pyridin-3-yl)-[1,2,4]triazolo [4,3-a]pyridin-5-amine], the IC50 in experiment [1] turned out to be 32 nM; in experiment [2], 235 nM; on EED (1-441)-His protein, 34.5 nM.

As for `COc1cccc(F)c1CNc1ccc(-c2cncc(C3=NC(C)(C)CO3)c2)c2nncn12` [Example 199, 8-(5-(4,4-dimethyl-4,5-dihydrooxazol-2-yl)pyridin-3-yl)-N-(2-fluoro-6-methoxybenzyl)-[1,2,4]triazolo[4,3-a] pyridin-5-amine], the IC50 came to 31.3 nM in experiment [1], 328 nM in experiment [2] and 23.7 nM at EED (1-441)-His protein.

Regarding `COc1cccc(F)c1CNc1ccc(-c2cc(F)c(N)c(F)c2)c2nncn12` [Example 200, 8-(4-amino-3,5-difluorophenyl)-N-(2-fluoro-6-methoxybenzyl)-[1,2,4] triazolo[4,3-a]pyridin-5-amine], the IC50 in experiment [1] came to 110 nM; in experiment [2], 225 nM; at EED (1-441)-His protein it was 71.1 nM.

Turning to `COc1cccc(F)c1CNc1ccc(-c2ccc(F)cc2C)c2nncn12` [Example 201, 8-(4-fluoro-2-methylphenyl)-N-(2-fluoro-6-methoxybenzyl)-[1,2,4]triazolo[4,3-a] pyridin-5-amine], the IC50 was found to be 71.7 nM in experiment [1], 366 nM in experiment [2] and 46.5 nM on EED (1-441)-His protein.

For the molecule `COCc1cncc(-c2ccc(NCc3c(F)cccc3OC)n3cnnc23)c1` [Example 203, N-(2-fluoro-6-methoxybenzyl)-8-(5-(methoxymethyl)pyridin-3-yl)-[1,2,4]triazolo[4,3-a] pyridin-5-amine], the IC50 in experiment [1] is 38.7 nM; in experiment [2], 73 nM; on EED (1-441)-His protein, 53.8 nM.

Turning to `COc1cccc(F)c1CNc1ccc(-c2ccc(C(C)O)nc2)c2nncn12` (stereo not drawn) [Example 205, 1-(5-(5-((2-fluoro-6-methoxybenzyl)amino)-[1,2,4]triazolo[4,3-a]pyridin-8-yl)pyridin-2-yl)ethanol], the IC50 worked out at 43.7 nM in experiment [1], 160 nM in experiment [2] and 53.1 nM at EED (1-441)-His protein.

Consider `COc1cccc(F)c1CNc1ccc(-c2ccc(C(=O)N(C)C)cc2)c2nncn12` [Example 206, 4-(5-((2-fluoro-6-methoxybenzyl)amino)-[1,2,4]triazolo[4,3-a]pyridin-8-yl)-N,N-dimethylbenzamide], for which the results for the IC50 (in experiment [1]; in experiment [2]; at EED (1-441)-His protein) were 24.1 nM, 48 nM and 24 nM, respectively.

Take `COc1cccc(F)c1CNc1ccc(-c2cncc(O)c2)c2nncn12` [Example 207, 5-(5-((2-fluoro-6-methoxybenzyl)amino)-[1,2,4]triazolo[4,3-a]pyridin-8-yl) pyridin-3-ol]: the IC50 turned out to be 74.8 nM in experiment [1], 467 nM in experiment [2] and 24.9 nM at EED (1-441)-His protein.

Consider `COc1cccc(F)c1CNc1ccc(-c2cnn(C3CC3)c2)c2nncn12` [Example 210, 8-(1-cyclopropyl-1H-pyrazol-4-yl)-N-(2-fluoro-6-methoxybenzyl)-[1,2,4] triazolo[4,3-a]pyridin-5-amine], for which the IC50 is 61.9 nM in experiment [1], 165 nM in experiment [2] and 42.4 nM at EED (1-441)-His protein.

As for `COc1cccc(F)c1CNc1ccc(-c2cnn(C3CCOCC3)c2)c2nncn12` [Example 212, N-(2-fluoro-6-methoxybenzyl)-8-(1-(tetrahydro-2H-pyran-4-yl)-1H-pyrazol-4-yl)-[1,2,4]triazolo[4,3-a] pyridin-5-amine], the IC50 worked out at 22.6 nM in experiment [1], 75.6 nM in experiment [2] and 18 nM at EED (1-441)-His protein.

Regarding `COc1cccc(F)c1CNc1ccc(-c2cccnc2Cl)c2nncn12` [Example 213, 8-(2-chloropyridin-3-yl)-N-(2-fluoro-6-methoxybenzyl)-[1,2,4]triazolo[4,3-a]pyridin-5-amine], the IC50 stood at 16.5 nM in experiment [1], 20 nM in experiment [2] and 20.5 nM at EED (1-441)-His protein.

Turning to `CO/N=C(\C)c1ccc(-c2ccc(NCc3c(F)cccc3OC)n3cnnc23)cn1` [Example 214, (E)-1-(5-(5-((2-fluoro-6-methoxybenzyl)amino)-[1,2,4]triazolo[4,3-a]pyridin-8-yl)pyridin-2-yl)ethanone O-methyl oxime], the IC50 in experiment [1] was 62.7 nM; in experiment [2], 965 nM; on EED (1-441)-His protein, 55.2 nM.

As for `COc1cccc(F)c1CNc1ccc(-c2ccc(N3CCCC3=O)nc2)c2nncn12` [Example 215, 1-(5-(5-((2-fluoro-6-methoxybenzyl)amino)-[1,2,4]triazolo[4,3-a]pyridin-8-yl)pyridin-2-yl)pyrrolidin-2-one], the IC50 was found to be 55 nM in experiment [1], 150 nM in experiment [2] and 20 nM at EED (1-441)-His protein.

For the molecule `COc1cccc(F)c1CNc1ccc(-c2cncc(C(C)(C)O)c2)c2nncn12` [Example 216, 2-(5-(5-((2-fluoro-6-methoxybenzyl)amino)-[1,2,4]triazolo[4,3-a]pyridin-8-yl)pyridin-3-yl)propan-2-ol], the IC50 in experiment [1] came out at 25.5 nM; in experiment [2] it was 449 nM; at EED (1-441)-His protein it was 33 nM.

As to `CNC(=O)Cc1cncc(-c2ccc(NCc3c(F)cccc3OC)n3cnnc23)c1` [Example 217, 2-(5-(5-((2-fluoro-6-methoxybenzyl)amino)-[1,2,4]triazolo[4,3-a]pyridin-8-yl)pyridin-3-yl)-N-methyl acetamide], the figures for the IC50 (in experiment [1]; in experiment [2]; on EED (1-441)-His protein) were 25 nM, 946 nM and 34.3 nM, respectively.

Take `COc1cccc(F)c1CNc1ccc(-c2c(C)ccnc2F)c2nncn12` [Example 218, 8-(2-fluoro-4-methylpyridin-3-yl)-N-(2-fluoro-6-methoxybenzyl)-[1,2,4]triazolo[4,3-a] pyridin-5-amine]: the figures for the IC50 (in experiment [1]; in experiment [2]; at EED (1-441)-His protein) were 42 nM, 79.5 nM and 38.3 nM, respectively.

Turning to `COc1cccc(F)c1CNc1ccc(-c2cncc(F)c2C)c2nncn12` [Example 219, 8-(5-fluoro-4-methylpyridin-3-yl)-N-(2-fluoro-6-methoxybenzyl)-[1,2,4]triazolo[4,3-a] pyridin-5-amine], the IC50 in experiment [1] turned out to be 26.7 nM; in experiment [2], 213 nM; on EED (1-441)-His protein it was 29.1 nM.

Consider `COc1cc(F)cc(F)c1CNc1ccc(-c2cccnc2)c2nncn12` [Example 220, N-(2,4-difluoro-6-methoxybenzyl)-8-(pyridin-3-yl)-[1,2,4]triazolo[4,3-a]pyridin-5-amine], for which the IC50 in experiment [1] came to 55.6 nM; in experiment [2], 142 nM; at EED (1-441)-His protein, 46 nM.

For the origin of these results see US10689378B2, “Triazolopyridine compounds and uses thereof” (Novartis AG, priority 2016, dated 2020).
